Measured values: article PMC8163982, “Partial agonism improves the anti-hyperglycaemic efficacy of an oxyntomodulin-derived GLP-1R/GCGR co-agonist” (Molecular Metabolism, 2021)
Where a SMILES comes first, the peptide text is derived from it. [ ]: non-standard residue; d: D form. Aib = CC(C)(N)C(=O)O

Experiments:
GLP-1R = GLP-1R (Homo sapiens, UniProt P43220); assay: NanoBiT mini-Gs recruitment to GLP-1R-SmBiT in HEK293T cells; type: cell-based; conditions: SRB103 pair, mean ± SEM, n = 6
Protocol: The assay was performed as previously described. […] (gifts from Professor Nevin Lambert, Medical College of Georgia) or 0.05 μg of GLP-1R-SmBiT and 0.05 μg of LgBiT-β-arrestin-2 (Promega) plus 0.9 μg of pcDNA3.1 for 24 h. The cells were detached with EDTA, resuspended in HBSS, and furimazine (Promega) was added at a 1:50 dilution from the manufacturer's pre-prepared stock. After dispensing into 96-well white plates, a baseline read of the luminescent signals was serially recorded for 5 min using a FlexStation 3 instrument at 37 °C before the indicated concentration of ligand was added, after which the signals were repeatedly recorded for 30 min. […] Bias was calculated using two approaches. First, the log max/EC50 method was used, with the ratio of Emax to EC50 from 3-parameter fits for each ligand used to quantify agonism. After log10 transformation, responses were expressed relative to the reference agonist on a per assay basis to obtain Δlog(Emax/EC50) for each pathway. Pathway-specific values were then expressed relative to each other to obtain ΔΔlog(Emax/EC50), that is, the log bias factor. Second, a method derived from kinetic curve fitting was used. Here, kinetic responses for a single maximal agonist concentration were normalised at each time point to the vehicle response prior to curve fitting. […]

[1] = Pharmacokinetic study in mice (plasma radioimmunoassay); type: in vivo, mouse; conditions: 0.5 mg/kg IP
Protocol: (§1) The mice were administered 0.5 mg/kg of peptide via IP injection. Four h after injection, blood was acquired by venesection into lithium heparin-coated microvette tubes (Sarstedt, Germany). In a separate study, male Sprague Dawley rats (average weight 250 g, obtained from Charles River) were administered 4 mg/kg of peptide SC mixed in aqueous ZnCl2 solution to a molar ratio of 0.7:1 (peptide:ZnCl2), and blood was collected by venesection at several time points up to 72 h. Plasma was separated by centrifugation at 10,000 g for 8 min at 4 °C. Plasma concentrations were assessed by radioimmunoassay using an in-house assay as previously described using standard curves generated from each SRB103 peptide to ensure that equivalent recovery was obtained.

[2] = Pharmacokinetic study in rats (SC with ZnCl2, plasma radioimmunoassay); type: in vivo, rat; conditions: 4 mg/kg SC with zinc, up to 72 h
Protocol: as §1

GCGR [3] = target: T1, GCGR (Homo sapiens, UniProt P47871); assay: cAMP production (HTRF) in PathHunter CHO-K1 cells expressing GCGR; type: cell-based; set-up: expressed in transfected cells; conditions: 30 min, mean ± SEM, n = 6; for EC50: 37 °C, serum-free medium, no phosphodiesterase inhibitors, read-out: GCGR CAMP (CHO–K1) pEC50 (converted); for Emax: CHO-K1, normalised to globally fitted maximum response
Protocol: (§2) HEK293T cells were maintained in DMEM supplemented with 10% FBS and 1% penicillin/streptomycin. PathHunter CHO–K1-βarr2-EA cells stably expressing human GLP-1R, GCGR, or GIPR and PathHunter CHO–K1-βarr1-EA cells stably expressing GCGR were obtained from DiscoverX and maintained in Ham's F12 medium with 10% FBS and 1% penicillin/streptomycin. Stable HEK293-SNAP-GLP-1R cells were maintained in DMEM supplemented with 10% FBS, 1% penicillin/streptomycin, and 1 mg/ml of G418. INS-1 832/3 cells, a gift from Professor Chris Newgard (Duke University), were maintained in RPMI with 11 mM of glucose supplemented with 10% FBS, 10 mM of HEPES, 1 mM of pyruvate, 50 μM of β-mercaptoethanol, and 1% penicillin/streptomycin. Huh7 cells stably expressing human GCGR (Huh7-GCGR) were maintained in DMEM supplemented with 10% FBS, 1 mg/ml of G418, and 1% penicillin/streptomycin.
(§3) PathHunter cells were stimulated with the indicated concentration of agonist for 30 min at 37 °C in serum-free medium without phosphodiesterase inhibitors. INS-1 832/3 cells were stimulated with the indicated concentration of agonist for 10 min at 37 °C in serum-free medium with 100 μM of 3-isobutyl-1-methylxanthine (IBMX). Primary dispersed mouse islet cells prepared by triturating intact islets in 0.05% trypsin/EDTA for 3 min at 37 °C were stimulated with the indicated concentration of agonist for 5 min at 37 °C in serum-free medium with 11 mM of glucose and 500 μM of IBMX. Primary mouse hepatocytes were stimulated in serum-free medium with 100 μM of IBMX for 10 min or 16 h in serum-free medium with 100 μM of IBMX added for the final 10 min of incubation. Huh7-GCGR cells were stimulated in serum-free medium without phosphodiesterase inhibitors for 10 min or for 16 h in serum-free medium. Where relevant, forskolin (10 μM) was added as a positive or normalisation control. At the end of each incubation, cAMP was then assayed by HTRF (Cisbio cAMP Dynamic 2) and concentration-response curves were constructed with 3-parameter curve fitting using Prism 8.0.

GCGR [4] = target: T1, GCGR; assay: cAMP accumulation in Huh7-GCGR cells; type: cell-based; set-up: expressed in transfected cells; host or cells: Huh7; conditions: mean ± SEM, n = 6; for Emax: expressed relative to 10 μM forskolin response
Protocol: as §2, §3

[5] = 16 h, read-out: Huh7-GCGR cAMP,16 h Emax
[6] = 16 h, read-out: Huh7-GCGR cAMP,16 h pEC50 (converted)
[7] = Huh7-GCGR cAMP, 10 min pEC50, 10 min, no phosphodiesterase inhibitors
[8] = read-out: Huh7-GCGR cAMP, 10 min Emax, 10 min

T1 sequence (P47871 26-477): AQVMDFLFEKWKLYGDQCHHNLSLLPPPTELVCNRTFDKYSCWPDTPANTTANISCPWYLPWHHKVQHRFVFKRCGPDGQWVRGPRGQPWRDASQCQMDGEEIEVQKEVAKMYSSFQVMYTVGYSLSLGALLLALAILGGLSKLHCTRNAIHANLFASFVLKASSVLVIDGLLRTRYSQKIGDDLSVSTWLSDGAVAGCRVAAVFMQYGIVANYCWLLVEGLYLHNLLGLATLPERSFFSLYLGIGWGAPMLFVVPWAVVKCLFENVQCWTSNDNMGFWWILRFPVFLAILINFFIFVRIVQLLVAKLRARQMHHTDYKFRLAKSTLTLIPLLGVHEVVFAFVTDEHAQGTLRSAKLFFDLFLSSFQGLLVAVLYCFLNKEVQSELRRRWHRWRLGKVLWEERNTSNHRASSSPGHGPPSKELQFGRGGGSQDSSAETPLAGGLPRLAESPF
Sequence of GLP-1R (P43220 24-463): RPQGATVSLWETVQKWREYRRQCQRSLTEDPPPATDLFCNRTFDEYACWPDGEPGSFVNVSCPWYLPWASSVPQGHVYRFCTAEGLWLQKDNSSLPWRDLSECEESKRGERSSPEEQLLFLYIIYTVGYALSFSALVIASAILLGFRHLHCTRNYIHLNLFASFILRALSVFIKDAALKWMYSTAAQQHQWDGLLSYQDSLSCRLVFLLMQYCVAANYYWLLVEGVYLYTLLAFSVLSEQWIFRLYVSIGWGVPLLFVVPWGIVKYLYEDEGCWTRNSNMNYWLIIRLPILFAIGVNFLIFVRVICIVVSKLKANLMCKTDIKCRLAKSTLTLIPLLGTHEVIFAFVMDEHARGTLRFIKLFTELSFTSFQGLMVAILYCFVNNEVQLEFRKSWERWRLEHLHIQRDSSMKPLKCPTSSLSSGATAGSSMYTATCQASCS

| Compound | Emax (GLP-1R; HEK-293T, normalised to globally fitted maximum response) [%] | EC50 (GLP-1R; 3-parameter fit, read-out: GLP-1R mini-Gs (HEK293T) pEC50 (converted)) [nM] | Plasma concentration 4 h after a single dose [1] | Pharmacokinetics by serial plasma sampling [2] | EC50 (GCGR [3]) [nM] | Emax (GCGR [3]) [%] | Emax (GCGR [4]; [5]) [%] | EC50 (GCGR [4]; [6]) [nM] | EC50 (GCGR [4]; [7]) [nM] | Emax (GCGR [4]; [8]) [%] |
| --- | --- | --- | --- | --- | --- | --- | --- | --- | --- | --- |
| CC[C@H](C)[C@H](NC(=O)[C@H](Cc1ccccc1)NC(=O)[C@H](CCC(=O)O)NC(=O)[C@H](CCC(N)=O)NC(=O)[C@H](C)NC(=O)[C@H](CCCNC(=N)N)NC(=O)[C@H](CCCCN)NC(=O)[C@H](C)NC(=O)[C@H](CC(=O)O)NC(=O)[C@H](CC(C)C)NC(=O)[C@H](Cc1ccc(O)cc1)NC(=O)[C@H](CCCCN)NC(=O)[C@H](CO)NC(=O)[C@H](Cc1ccc(O)cc1)NC(=O)[C@H](CC(=O)O)NC(=O)[C@H](CO)NC(=O)[C@@H](NC(=O)[C@H](Cc1ccccc1)NC(=O)[C@@H](NC(=O)CNC(=O)[C@H](Cc1c[nH]cn1)NC(=O)C(C)(C)NC(=O)[C@@H](N)Cc1c[nH]cn1)[C@@H](C)O)[C@@H](C)O)C(=O)N[C@@H](CCC(=O)O)C(=O)N[C@@H](Cc1c[nH]c2ccccc12)C(=O)N[C@@H](CC(C)C)C(=O)N[C@@H](CC(C)C)C(=O)N[C@@H](C)C(=O)NCC(=O)N[C@@H](Cc1c[nH]cn1)C(=O)N[C@@H](Cc1c[nH]cn1)C(=O)N[C@@H](Cc1c[nH]cn1)C(=O)N[C@@H](Cc1c[nH]cn1)C(=O)N[C@@H](Cc1c[nH]cn1)C(=O)N1CCC[C@H]1C(=O)N[C@@H](CO)C(=O)N[C@@H](Cc1c[nH]c2ccccc12)C(=O)O [SRB103H] (H-H[Aib]HGTFTSDYSKYLDAKRAQEFIEWLLAGHHHHHPSW-OH) | 103 ± 4 | 79.4 | the same | no obvious difference in pharmacokinetics | 0.251 | 107 ± 5 | 173 ± 11 | 0.251 | 0.0316 | 27 ± 4 |
| CC[C@H](C)[C@H](NC(=O)[C@H](Cc1ccccc1)NC(=O)[C@H](CCC(=O)O)NC(=O)[C@H](CCC(N)=O)NC(=O)[C@H](C)NC(=O)[C@H](CCCNC(=N)N)NC(=O)[C@H](CCCCN)NC(=O)[C@H](C)NC(=O)[C@H](CC(=O)O)NC(=O)[C@H](CC(C)C)NC(=O)[C@H](Cc1ccc(O)cc1)NC(=O)[C@H](CCCCN)NC(=O)[C@H](CO)NC(=O)[C@H](Cc1ccc(O)cc1)NC(=O)[C@H](CC(=O)O)NC(=O)[C@H](CO)NC(=O)[C@@H](NC(=O)[C@H](Cc1ccccc1)NC(=O)[C@@H](NC(=O)CNC(=O)[C@H](CCC(N)=O)NC(=O)C(C)(C)NC(=O)[C@@H](N)Cc1c[nH]cn1)[C@@H](C)O)[C@@H](C)O)C(=O)N[C@@H](CCC(=O)O)C(=O)N[C@@H](Cc1c[nH]c2ccccc12)C(=O)N[C@@H](CC(C)C)C(=O)N[C@@H](CC(C)C)C(=O)N[C@@H](C)C(=O)NCC(=O)N[C@@H](Cc1c[nH]cn1)C(=O)N[C@@H](Cc1c[nH]cn1)C(=O)N[C@@H](Cc1c[nH]cn1)C(=O)N[C@@H](Cc1c[nH]cn1)C(=O)N[C@@H](Cc1c[nH]cn1)C(=O)N1CCC[C@H]1C(=O)N[C@@H](CO)C(=O)N[C@@H](Cc1c[nH]c2ccccc12)C(=O)O [SRB103Q] (H-H[Aib]QGTFTSDYSKYLDAKRAQEFIEWLLAGHHHHHPSW-OH) | – | – | – | no obvious difference in pharmacokinetics | 0.398 | 103 ± 4 | 284 ± 38 | 0.2 | 0.0158 | 27 ± 4 |
